# Assays:
# Type in all cases: cell-based
# Pythium ultimum [1] = assay: Amended agar assay (PDA), colony growth; conditions: Globisporangium ultimum; 20 ppm in amended PDA, 18° C., reduction in colony growth vs control plate
# Experimental: (§1) Testing was carried out on potato dextrose agar (PDA) amended with each compound at a test concentration of 20 ppm. Amended agar was poured into three replicate 9 cm petri dishes. Each replicate dish was inoculated in the centre with a 5 mm agar plug taken from the leading edge of a culture aged between 2 and 7 days old; the age of the culture was dependant on the growth rate of the pathogen being tested. The test pathogens were Pythium ultimum and Phytophthora cinnamomi. Plates were incubated at 18° C. and the diameter of each colony measured before growth on the fastest growing plate reached the plate edge. This varied between 2 and 7 days depending on the growth rate of test pathogens. The % reduction in colony growth compared to the control plate was calculated for each pathogen. The results are provided in Table 1, in which D represents no control detected at this concentration; C represents up to 50% control; B from 50 to 99% control; and A represents a control of greater than 99%, i.e. no detectable colony growth.
# (§2) Alternatively, or in addition, the same assay was conducted at descending test concentrations with 5-fold dilutions typically down to 0.032 ppm though sometimes as low as 0.00026 ppm, and an EC50 (the concentration at which 50% control would be achieved) was determined. The results are provided in Table 1 in which G represents an EC50 above 20 ppm, F represents an EC50 of 1-20 ppm and E represents and EC50 less than 1 ppm.
# Phytophthora cactorum = assay: 96 well plate test (amended agar with spores); conditions: 96 well plate, 20, 2, 0.2 and 0.02 ppm, 1% PDA, 2 to 3 days (cells marked *), read-out: EC50 Phytophthora spp. (*96 well plate format vs. Phytophthora cactorum)
# Experimental: Compounds were screened in 96 well plates with 10 compounds per plate. Each compound was screened using agar amended to 20, 2, 0.2 and 0.02 ppm, with Proline at 50 and 10 ppm and 0.2% DMSO used as controls. Each test concentration and standard was replicated twice on a plate. Compounds were screened against Phytophthora cactorum. The agar used in the test is a 1% PDA. 1000 spores/mL agar were added to the appropriate agar.
# A ×10 stock solution in 2% DMSO was produced for each dose i.e. 200, 20, 2 and 0.2 ppm, and 10 μl of this added to the appropriate wells on the plate. An equivalent amount of 2% DMSO and Proline stock at 500 and 100 ppm were added for the controls. To each well 90 μl of the appropriate agar spore suspension was added to give the required final well concentrations. Plates were incubated at room temperature (18° C.) and assessed after 2 to 3 days. The amount of pathogen growth in each well was compared to the DMSO controls and an EC50 concentration was calculated. The results are provided in Table 1 in which G represents an EC50 above 20 ppm, F represents an EC50 of 1-20 ppm and E represents an EC50 less than 1 ppm.
# oomycete plant pathogens = assay: Fungicidal activity testing, overall summary; conditions: summary statement on Table 1
# Experimental: The activity of compounds of the invention was assessed by testing against certain oomycete plant pathogens and representative data are presented in Table 1.
# Pythium ultimum [2] = assay: Amended agar assay (PDA), colony growth; conditions: Globisporangium ultimum; read-out: % control Pythium ultimum 2 ppm
# Phytophthora cinnamomi = assay: Amended agar assay (PDA), colony growth; conditions: Phytophthora cinnamomi; 20 ppm in amended PDA, 18° C., reduction in colony growth vs control plate; read-out: % control Phytophthora spp. 20 ppm
# Experimental: as §1, §2
SMILES,inhibition of growth at 20 ppm (Pythium ultimum [1]) [%],EC50 (Phytophthora cactorum) [µg/mL],control over the pathogens tested (oomycete plant pathogens),inhibition of growth at 2 ppm (Pythium ultimum [2]) [%],inhibition of growth at 20 ppm (Phytophthora cinnamomi) [%]
Cn1nnnc1-n1c(SCc2nccs2)nc2ccccc21 [Example 34],> 99,1 to 20,good to excellent control,50 to 99,–
"Clc1cncnc1-n1c(SCc2ccccn2)nc2ccccc21 [Example 59, 1-(5-Chloropyrimidin-4-yl)-2-((pyridin-2-ylmethyl)thio)-1H-benzo[d]imidazole]",> 99,1 to 20,good to excellent control,> 99,> 99
Cc1ccnc(CSc2nc3ccccc3n2-c2nnnn2C)c1 [Example 37],> 99,1 to 20,good to excellent control,50 to 99,–
